Laboratory results: US20120045393A1 (priority 2009, published 2012)
Where two headings read alike, the source gives them in different places. One block for each molecule: values may come before it. Non-standard residues stand in square brackets, D forms with d. Primed or numbered codes have the meaning given here. DO3A10CM(3) = metal chelator group attached at the N-terminus (X in table rows); DO3A10CM″ = chelating group at the N-terminus (X in the sequence tables); Bpa = N[C@@H](Cc1ccc(C(=O)c2ccccc2)cc1)C(=O)O; d2Nal = N[C@H](Cc1ccc2ccccc2c1)C(=O)O; DO3A10CM = not defined here; Tha = not defined here; azaGly = NNC(=O)O; Sar = CNCC(=O)O

Tests used:
liver homogenate = details: female Tac:NCr:Foxn1^nu/nu mice, 37° C., up to 60 min
[1] = tested on: PC-3 (human prostate cancer) cells; assay: Internalization/efflux studies in PC-3 cells; assay type: cell-based; design: Cell associated activity at 2 h % Efflux / Cell associated activity at 0 h % Memb / Cell associated activity at 2 h % Memb: concentration or dose not given beside the values
Experimental: (§1) Internalization/Efflux Studies: The internalization and efflux studies were carried out following the general procedure. Basically, ^177Lu-LHRH II or ^125I-LHRH II ([^125I-Tyr^8]BRU-2477) (75 uL, 3.0 μCi/mL) was added to the EFO-27 or PC-3 cells. The cells were incubated for 40 min at 37° C. The unbound radioactivity was washed off (4×). Following addition of fresh medium, the cells were further incubated for up to 2 h. At various time points (15, 30, 60 & 120 min) the distribution of radioactivity (membrane-bound, internalized, and efflux) was determined
To determine whether prostate cancer cells (PC-3) behave differently from EFO-27 cells, internalization and efflux studies were carried out with ^177Lu-BRU-2813 using both cell lines.

[2] = tested on: LHRH binding sites on human ovarian cancer cells (EFO-27);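 note: Cell-associated radioactivity on confluent EFO-27 monolayers in 96-well plates, measured by microplate scintillation counting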
EFO-27 cells = assay: Internalization/efflux studies in EFO-27 cells; assay type: cell-based, human; details: for Cell associated activity at 0 h % Intern / Cell associated activity at 2 h % Intern: internalized; for Cell associated activity at 0 h % Memb / Cell associated activity at 2 h % Memb: membrane bound; for Bound %: of added; for Bound: per well
Experimental: as §1
The internalization and efflux of several Lu-177 labeled LHRH II analogs in EFO-27 cells have been investigated. Basically, following pre-incubation of cells with ^177Lu-LHRH II samples, the binding buffer containing the ^177Lu was replaced with fresh media without complex. The extent of initial internalization (T=0), the amount of radioactive material that remained internalized and the efflux at 0-120 min were determined. The results are shown in FIGS. 21a-f and 22a-c and in Table 25.

[3] = tested on: EFO-27 human ovarian cancer cells (LHRH binding sites); assay: Saturation binding of radiolabeled LHRH-II analogs to EFO-27 cells
Experimental: Saturation binding of ^125I-LHRH II and the ^177Lu-labeled LHRH II analog ^177Lu-BRU-2666 to EFO-27 cells was carried out to determine the binding affinity, binding capacity (Bmax) and receptor numbers. The data were analyzed for a single binding site using Prizm software.

[4] = target: T1, LHRH binding sites on EFO-27 human ovarian cancer cells (human); assay: competition with [125I-Tyr8]BRU-2477 on EFO-27 cells
T1 chain: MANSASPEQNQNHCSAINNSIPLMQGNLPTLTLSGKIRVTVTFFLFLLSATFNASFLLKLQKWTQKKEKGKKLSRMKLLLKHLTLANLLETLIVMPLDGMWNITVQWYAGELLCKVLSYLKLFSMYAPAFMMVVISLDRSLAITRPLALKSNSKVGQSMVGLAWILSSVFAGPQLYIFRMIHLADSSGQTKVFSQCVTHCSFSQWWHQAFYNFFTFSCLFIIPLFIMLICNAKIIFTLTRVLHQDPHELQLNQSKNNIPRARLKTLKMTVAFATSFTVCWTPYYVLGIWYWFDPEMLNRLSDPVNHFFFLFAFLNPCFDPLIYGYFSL

[5] = target: T1, LHRH binding sites (presumed LHRH …); assay: as above
[6] = target: T1, LHRH binding sites (presumed LHRH …); assay: as above
[7] = target: LHRH receptor (LHRH binding sites) on EFO-27 human ovarian cancer cells (human); assay: competition with [125I-Tyr8]BRU-2477 for binding to EFO-27 cells
[8] = target: LHRH binding sites on EFO-27 human ovarian cancer cells (human); assay: competition with [125I-Tyr8]BRU-2477 on EFO-27 cells; remark: listed apart in the source
[9] = target: LHRH receptor (LHRH binding sites) on EFO-27 human ovarian cancer cells (human); assay: competition with [125I-Tyr8]BRU-2477, EFO-27 cells
[10] = saturation binding, single binding site

Molecule: DO3A10CM-Dnal2-Arg-Trp-Ser-His-Darg-Trp-Bpa4-Ampt4-azaGly-NH2
not cleaved (liver homogenate): 98.7 ± 0.1 % remaining after 60 min; no metabolism was observed

Molecule: pGlu-His-Trp-Ser-His-Darg-Trp-Tyr-Ψ(CH2N)-Pro-azaGly-NH2
not cleaved (liver homogenate): 100 ± 0 % remaining after 60 min; no metabolism

Molecule: DO3A10CM-Dnal2-Arg-Trp-Ser-His-Darg-Trp-Bpa4-Thz-azaGly-NH2
not cleaved (liver homogenate): 98.5 ± 0.2 % remaining after 60 min; no metabolism was observed

Molecule: DO3A10CM-Dnal2-Arg-Trp-Ser-His-Darg-Trp-Bpa4-Aze-azaGly-NH2
fragment found (liver homogenate): lutetium complex of BRU-3064 (DO3A10CM-Dnal2-Arg-Trp-Ser-His-Darg-Trp-Bpa-OH)

Molecule: DO3A10CM-Dnal2-Arg-Trp-Ser-His-Darg-Trp-Bpa4-Flp4-azaGly-NH2
fragment found (liver homogenate): lutetium complex of BRU-3064 (DO3A10CM-Dnal2-Arg-Trp-Ser-His-Darg-Trp-Bpa-OH)

Molecule: N=C(N)NCCC[C@H](NC(=O)[C@@H](Cc1ccc2ccccc2c1)NC(=O)CN1CCN(CC(=O)O)CCN(CC(=O)O)CCN(CC(=O)O)CC1)C(=O)N[C@@H](Cc1c[nH]c2ccccc12)C(=O)N[C@@H](CO)C(=O)N[C@@H](Cc1cnc[nH]1)C(=O)N[C@H](CCCNC(=N)N)C(=O)N[C@@H](Cc1c[nH]c2ccccc12)C(=O)N[C@@H](Cc1ccc(C(=O)c2ccccc2)cc1)C(=O)N1CCC[C@H]1C(=O)NNC(N)=O [BRU-2813, DO3A10CM-Dnal2-Arg-Trp-Ser-His-Darg-Trp-Bpa-Pro-azaGly-NH2]
Cell associated activity at 0 h % Efflux ([1]; 0 h): 12.5% | Cell associated activity at 0 h % Intern ([1]; 0 h, internalized): 26.2% | Cell associated activity at 0 h % Memb ([1]; 0 h, membrane bound): 61.9% | Cell associated activity at 2 h % Efflux ([1]; 2 h): 75.7% | Cell associated activity at 2 h % Intern ([1]; 2 h, internalized): 7.5% | Cell associated activity at 2 h % Memb ([1]; 2 h, membrane bound): 16.8% | Bound % ([1]; of added): 19.26% | Bound ([1]; per well): 44.3 fmol | more potency than the comparator analog ([2]; BRU-2813 vs BRU-2666, BRU-2964 vs BRU-2813): 30% | EC50 ([2]; EFO-27 cells, competition with [125I-Tyr8]BRU-2477, 90 min): 330 nM | EC50 ([2]; Table 19: analogs used in the stabilization studies): 420 nM | Cell associated activity at 0 h % Efflux (EFO-27 cells): 8.8% | Cell associated activity at 0 h % Intern (EFO-27 cells): 24.1% | Cell associated activity at 0 h % Memb (EFO-27 cells): 66.8% | Cell associated activity at 2 h % Efflux (EFO-27 cells): 75.3% | Cell associated activity at 2 h % Intern (EFO-27 cells): 7.4% | Cell associated activity at 2 h % Memb (EFO-27 cells): 17.3% | Bound % (EFO-27 cells): 19.10% | Bound (EFO-27 cells): 40.5 fmol

Molecule: DO3A10CM-Dnal2-Arg-Trp-Ser-His-Darg-Trp-Bpa4-Ψ(CH2N)Pro-azaGly-NH2
not cleaved (liver homogenate): 100 ± 0 % remaining after 60 min; no metabolism was observed

Molecule: N=C(N)NCCC[C@@H](NC(=O)[C@H](Cc1c[nH]cn1)NC(=O)[C@H](CO)NC(=O)[C@H](Cc1c[nH]c2ccccc12)NC(=O)[C@H](Cc1c[nH]cn1)NC(=O)[C@@H]1CCC(=O)N1)C(=O)N[C@@H](Cc1c[nH]c2ccccc12)C(=O)N[C@@H](Cc1ccc(O)c(I)c1)C(=O)N1CCC[C@H]1C(=O)NNC(N)=O [125I-LHRH II, Darg^6,^125I-Tyr^8,azaGly^10-LHRH-II, reference compound]
receptor numbers [3]: 85×10^6 /cell | Kd [3, 10]: 1290 nM | Max. binding (Bmax) [3, 10]: 141 pmoles/10^6 cells | Receptors/cell [3, 10]: 85 ×10^6 | Kd ([3]; single binding site): 1290 nM | binding capacity (Bmax) ([3]; single binding site): 141 pmoles/million cells | Cell associated activity at 0 h % Efflux (EFO-27 cells): 19% | Cell associated activity at 0 h % Intern (EFO-27 cells): 36.7% | Cell associated activity at 0 h % Memb (EFO-27 cells): 44.6% | Cell associated activity at 2 h % Efflux (EFO-27 cells): 87.1% | Cell associated activity at 2 h % Intern (EFO-27 cells): 4.9% | Cell associated activity at 2 h % Memb (EFO-27 cells): 3.5% | initial internalization (EFO-27 cells; % of total bound (cell-associated) radioactivity, T=0): 35.6% | Bound % (EFO-27 cells): 1.20% | Bound (EFO-27 cells): 1.87 fmol

Molecule: DO3A10CM-Dnal2-Arg-Trp-Ser-His-Darg-Trp-Bpa4-Pip-azaGly-NH2
fragment found (liver homogenate): Lu-DO3A10CM-Dnal2-Arg-Trp-Ser-His-Darg-Trp-Bpa4-Pip-OH

Molecule: pGlu-His-Trp-Ser-His-Darg-Trp-Tyr-Ampc4-azaGly-NH2
not cleaved (liver homogenate): 100 ± 0 % remaining after 60 min; no metabolism

B1: BRU-2670 (peptide)
peptide: {DO3A10CM(3)}-[Sar]HWSY[dR]L[Bpa]P[azaGly]-NH2
notes: AA5 Tyr, AA7 Leu
EC50 [4]: 8.84 µM

B3: BRU-2740 (peptide)
peptide: {DO3A10CM″}-[Sar]WS[Tha][dR]W[Bpa]P[azaGly]-NH2
modifications: reading uncertain
EC50 [4]: 5.53 µM

B5: BRU-2733 (peptide)
peptide: GHWSHXWXPX
modifications: DO3A10CM on N-terminus; AA6 Darg; AA8 Bpa4; AA10 azaGly-NH2
notes: AA1 Gly
EC50 [6]: 1180 nM

B8: BRU-2814 (peptide)
peptide: DO3A10CM-[Sar]YWSH[dR]W[Bpa]P[azaGly]-NH2
modifications: reading uncertain
notes: AA2 Tyr
EC50 [6]: 2240 nM

B9: BRU-2667 (peptide)
peptide: {DO3A10CM(3)}-GPHWSH[dR]W[Bpa]P[azaGly]-NH2
notes: AA1 Pro
EC50 [6]: 7290 nM

B10: BRU-2668 (peptide)
peptide: {DO3A10CM(3)}-[Sar]HWSY[dR]W[Bpa]P[azaGly]-NH2
notes: AA5 Tyr
EC50 [4]: 3.47 µM

B11: BRU-2735 (peptide)
peptide: FHWSHXWXPX
modifications: DO3A10CM on N-terminus; AA6 Darg; AA8 Bpa4; AA10 azaGly-NH2
notes: AA1 Phe
EC50 [6]: 1140 nM

B14: BRU-2738 (peptide)
peptide: XFWSHXWXPX
modifications: DO3A10CM on N-terminus; AA1 Sar; AA6 Darg; AA8 Bpa4; AA10 azaGly-NH2
notes: AA2 Phe
EC50 [6]: 1220 nM

B18: BRU-2795 (peptide)
peptide: GGHWSHXWXPX
modifications: DO3A10CM-Gly (linker) on N-terminus; AA6 Darg; AA8 Bpa4; AA10 azaGly-NH2
notes: AA1 Gly
EC50 [6]: 1370 nM

Now from value to molecule:

EC50 [4]: 1.09 µM
B2: BRU-3028 (peptide)
peptide: DO3A10CM-[d2Nal]RWSA[dR]W[Bpa]P[azaGly]-NH2
modifications: reading uncertain
notes: AA5 Ala

EC50 [5]: 11500 nM
B4: BRU-3114 (peptide)
peptide: DO3A10CM-[d2Nal]RWWH[dR]W[Bpa]P[azaGly]-NH2
modifications: reading uncertain
notes: AA4 Trp

EC50 [5]: 220 nM
B6: BRU-2964 (peptide)
peptide: DO3A10CM-[d2Nal]RWMH[dR]W[Bpa]P[azaGly]-NH2
modifications: reading uncertain
notes: AA4 Met

EC50 [5]: 280 nM
B7: BRU-2956 (peptide)
peptide: XRWNHXWXPX
modifications: DO3A10CM on N-terminus; AA1 Dnal2; AA6 Darg; AA8 Bpa4; AA10 azaGly-NH2
notes: AA4 Asn

EC50 [7]: 160 nM | EC50 [8]: 160 nM | fold improved binding against the Pro9 analog (BRU-2813) [8]: 2.5 fold | EC50 [9]: 160 nM
B12: BRU-3072 (peptide)
peptide: XRWSHXWXXX
modifications: as printed: DO3A10CM-Dnal2-Arg-Trp-Ser-His-Darg-Trp-Bpa4-Thz-azaGly-NH2

EC50 [6]: 10000 nM
B13: BRU-2871 (peptide)
peptide: DO3A10CM-[Sar]KWSH[dR]W[Bpa]P[azaGly]-NH2
modifications: reading uncertain
notes: AA2 Lys

EC50 [5]: 1130 nM
B15: BRU-3113 (peptide)
peptide: DO3A10CM-[d2Nal]RWLH[dR]W[Bpa]P[azaGly]-NH2
modifications: reading uncertain
notes: AA4 Leu

EC50 [6]: 310 nM
B16: BRU-3050 (peptide)
peptide: RRWSHXWXPX
modifications: DO3A10CM on N-terminus; AA6 Darg; AA8 Bpa4; AA10 azaGly-NH2
notes: AA1 Arg, AA2 Arg

EC50 [7]: 350 nM | EC50 [8]: 350 nM | EC50 [9]: 350 nM
B17: BRU-2996 (peptide)
peptide: XRWSHXWXXX
modifications: as printed: DO3A10CM-Dnal2-Arg-Trp-Ser-His-Darg-Trp-Bpa4-Pip-azaGly-NH2

EC50 [5]: 4200 nM
B19: BRU-2954 (peptide)
peptide: DO3A10CM-[d2Nal]RWDH[dR]W[Bpa]P[azaGly]-NH2
modifications: reading uncertain
notes: AA4 Asp

EC50 [4]: 1.21 µM
B20: BRU-3029 (peptide)
peptide: DO3A10CM-[d2Nal]RWSL[dR]W[Bpa]P[azaGly]-NH2
modifications: reading uncertain
notes: AA5 Leu
